Data as given in patent US11279733B2, “Peptide antibiotics” (priority 2017, dated 2022).
In brackets after ≈: the same amount, converted by molar mass. Where two headings read alike, the source gives them in different places. Positions of bridges follow the written chain, without caps; N, C: chain ends. Non-standard residues stand in square brackets, D forms with d. Residues, ends and D or L forms follow the SMILES beside them. *: point of attachment. Decanoyl(3R-OH) = CCCCCCC[C@@H](O)CC(=O)*; dPhe(4-NH2) = Nc1ccc(C[C@@H](N)C(=O)O)cc1; d3Pal = N[C@H](Cc1cccnc1)C(=O)O; X4 = CCCCCOc1ccc(C(=O)*)cc1; dOrn = NCCC[C@@H](N)C(=O)O; dDab = NCC[C@@H](N)C(=O)O; Dab = NCC[C@H](N)C(=O)O; Dap = NC[C@H](N)C(=O)O

Key:
in vitro = settings: human
How it was run: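 Compound exposure lasted 24 h, following 24 h attachment of 4000 cells/well at 37° C under 5% CO2.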

[1] = test system: K. pneumoniae ATCC 700603, MDR; settings: ATCC 700603
How it was run: (§1)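 Mid-log cultures grown in Mueller Hinton broth at 37° C were tested by 2-fold broth microdilution at 5×10^5 CFU/mL final. Compounds were dissolved in water and tested over a final range of 32 to 0.015 μg/mL.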

[2] = test system: P. aeruginosa GN_105, PmxR; settings: GN 105, PmxR
How it was run: as §1

P. aeruginosa ATCC 27853 = settings: ATCC 27853
How it was run: as §1

[3] = test system: S. aureus ATCC 25923, MSSA; settings: ATCC 25923
How it was run: as §1

[4] = test system: P. aeruginosa GN_043, PmxR
How it was run: as §1

[5] = test system: K. pneumoniae ATCC BAA-2146, NDM-1 pos; settings: ATCC BAA-2146
How it was run: as §1

A. baumannii ATCC 19606 = settings: ATCC 19606
How it was run: as §1

K. pneumoniae ATCC 13883 = settings: ATCC 13883
How it was run: as §1

[6] = test system: K. pneumoniae GN_106, PmxR; settings: GN 106, PmxR
How it was run: as §1

[7] = test system: K. pneumoniae GN_102 PmxR; settings: GN 102 PmxR
How it was run: as §1

A. baumannii GN_093 PmxR = settings: GN 093 PmxR
How it was run: as §1

E. coli ATCC 25922 = settings: ATCC 25922
How it was run: as §1

SMILES | CC50 at 24 h (in vitro) | MIC K. pneumoniae ATCC 700603, MDR [1] | MIC P. aeruginosa GN_105, PmxR [2] | MIC P. aeruginosa ATCC 27853 (P. aeruginosa ATCC 27853) | MIC S. aureus ATCC 25923, MSSA [3] | MIC K. pneumoniae ATCC BAA-2146, NDM-1 pos [5] | MIC A. baumannii ATCC 19606 (A. baumannii ATCC 19606) | MIC K. pneumoniae ATCC 13883 (K. pneumoniae ATCC 13883) | MIC K. pneumoniae GN_106, PmxR [6] | MIC K. pneumoniae GN_102 PmxR [7] | MIC A. baumannii GN_093 PmxR (A. baumannii GN_093 PmxR) | MIC E. coli ATCC 25922 (E. coli ATCC 25922) | MIC P. aeruginosa GN_043, PmxR ([4]; P. aeruginosa GN_043, PmxR) | also measured
CCCCCCC[C@@H](O)CC(=O)N[C@@H](CCN)C(=O)N[C@H]1CCNC(=O)[C@H](CC(C)C)NC(=O)[C@H](CN)NC(=O)[C@H](CCN)NC(=O)[C@H](CC(C)C)NC(=O)[C@@H](Cc2ccccc2)NC(=O)[C@H](CCN)NC1=O [compound 5564, 3(R)OH-nC9CO-L-Dab-cyc[L-Dab-L-Dab-D-Phe-L-Leu-L-Dab-L-Dap-L-Leu]] ({Decanoyl(3R-OH)}-[Dab][Dab][Dab][dF]L[Dab][Dap]L; lactam 2-C) | > 300 µM | 16 µg/mL (≈ 15.5 µM) | 32 µg/mL (≈ 31.1 µM) | 2 µg/mL (≈ 1.94 µM) | 32 µg/mL (≈ 31.1 µM) | 8 µg/mL (≈ 7.76 µM) | >32 µg/mL | 8 µg/mL (≈ 7.76 µM) | 8 µg/mL (≈ 7.76 µM) | 4 µg/mL (≈ 3.88 µM) | 32 µg/mL (≈ 31.1 µM) | 8 µg/mL (≈ 7.76 µM) |  | MIC P. aeruginosa GN_043, PmxR ([4]; polymyxin-resistant): 2 µg/mL (≈ 1.94 µM)
CCCCCCC[C@@H](O)CC(=O)N[C@H](Cc1ccc(N)cc1)C(=O)N[C@H]1CCNC(=O)[C@H](CC(C)C)NC(=O)[C@H](CCN)NC(=O)[C@H](CCN)NC(=O)[C@H](Cc2ccccc2)NC(=O)[C@@H](CC(C)C)NC(=O)[C@H](CCN)NC1=O [compound 6429, 3(R)OH-nC9CO-D-4NH2Phe-cyc[L-Dab-L-Dab-D-Leu-L-Phe-L-Dab-L-Dab-L-Leu]] ({Decanoyl(3R-OH)}-[dPhe(4-NH2)][Dab][Dab][dL]F[Dab][Dab]L; lactam 2-C) | > 300 µM | 8 µg/mL (≈ 7.23 µM) | 32 µg/mL (≈ 28.9 µM) | 32 µg/mL (≈ 28.9 µM) | >32 µg/mL | 16 µg/mL (≈ 14.5 µM) | 32 µg/mL (≈ 28.9 µM) | 16 µg/mL (≈ 14.5 µM) | 8 µg/mL (≈ 7.23 µM) | 8 µg/mL (≈ 7.23 µM) | >32 µg/mL | 16 µg/mL (≈ 14.5 µM) | 16 µg/mL (≈ 14.5 µM) | 
CCCCCCC[C@@H](O)CC(=O)N[C@H](Cc1cccnc1)C(=O)N[C@H]1CCNC(=O)[C@H](CC(C)C)NC(=O)[C@H](CCN)NC(=O)[C@H](CCN)NC(=O)[C@H](Cc2ccccc2)NC(=O)[C@@H](CC(C)C)NC(=O)[C@H](CCN)NC1=O [compound 6430, 3(R)OH-nC9CO-D-3PyPhe-cyc[L-Dab-L-Dab-D-Leu-L-Phe-L-Dab-L-Dab-L-Leu]] ({Decanoyl(3R-OH)}-[d3Pal][Dab][Dab][dL]F[Dab][Dab]L; lactam 2-C) | > 300 µM | 8 µg/mL (≈ 7.32 µM) | 32 µg/mL (≈ 29.3 µM) | 32 µg/mL (≈ 29.3 µM) | >32 µg/mL | 16 µg/mL (≈ 14.6 µM) | 32 µg/mL (≈ 29.3 µM) | 16 µg/mL (≈ 14.6 µM) | 4 µg/mL (≈ 3.66 µM) | 8 µg/mL (≈ 7.32 µM) | >32 µg/mL | 16 µg/mL (≈ 14.6 µM) | 16 µg/mL (≈ 14.6 µM) | 
CCCCCCC[C@@H](O)CC(=O)NCC(=O)N[C@H]1CCNC(=O)[C@H](CC(C)C)NC(=O)[C@H](CCN)NC(=O)[C@H](CCN)NC(=O)[C@H](Cc2ccccc2)NC(=O)[C@@H](CC(C)C)NC(=O)[C@H](CCN)NC1=O [compound 6431, 3(R)OH-nC9CO-Gly-cyc[L-Dab-L-Dab-D-Leu-L-Phe-L-Dab-L-Dab-L-Leu]] ({Decanoyl(3R-OH)}-G[Dab][Dab][dL]F[Dab][Dab]L; lactam 2-C) | > 300 µM | 8 µg/mL (≈ 7.99 µM) | 4 µg/mL (≈ 3.99 µM) | 8 µg/mL (≈ 7.99 µM) | >32 µg/mL | 8 µg/mL (≈ 7.99 µM) | 32 µg/mL (≈ 32 µM) | 8 µg/mL (≈ 7.99 µM) | 4 µg/mL (≈ 3.99 µM) | 2 µg/mL (≈ 2 µM) | 32 µg/mL (≈ 32 µM) | 16 µg/mL (≈ 16 µM) | 8 µg/mL (≈ 7.99 µM) | 
CCCCCCC[C@@H](O)CC(=O)N[C@H](CC(N)=O)C(=O)N[C@H]1CCNC(=O)[C@H](CC(C)C)NC(=O)[C@H](CCN)NC(=O)[C@H](CCN)NC(=O)[C@H](Cc2ccccc2)NC(=O)[C@@H](CC(C)C)NC(=O)[C@H](CCN)NC1=O [compound 6432, 3(R)OH-nC9CO-D-Asn-cyc[L-Dab-L-Dab-D-Leu-L-Phe-L-Dab-L-Dab-L-Leu]] ({Decanoyl(3R-OH)}-[dN][Dab][Dab][dL]F[Dab][Dab]L; lactam 2-C) | > 300 µM | 16 µg/mL (≈ 15.1 µM) | 8 µg/mL (≈ 7.56 µM) | 16 µg/mL (≈ 15.1 µM) | >32 µg/mL | 16 µg/mL (≈ 15.1 µM) | 32 µg/mL (≈ 30.2 µM) | 16 µg/mL (≈ 15.1 µM) | 4 µg/mL (≈ 3.78 µM) | 4 µg/mL (≈ 3.78 µM) | >32 µg/mL | 16 µg/mL (≈ 15.1 µM) | 4 µg/mL (≈ 3.78 µM) | 
CCCCCCC[C@@H](O)CC(=O)N[C@H](CCCN)C(=O)N[C@H]1CCNC(=O)[C@H](CC(C)C)NC(=O)[C@H](CCN)NC(=O)[C@H](CCN)NC(=O)[C@H](CC(C)C)NC(=O)[C@@H](Cc2ccccc2)NC(=O)[C@H](CCN)NC1=O [compound 6443, 3(R)OH-nC9CO-D-Orn-cyc[L-Dab-L-Dab-D-Phe-L-Leu-L-Dab-L-Dab-L-Leu]] ({Decanoyl(3R-OH)}-[dOrn][Dab][Dab][dF]L[Dab][Dab]L; lactam 2-C) | > 300 µM |  | 2 µg/mL (≈ 1.89 µM) |  |  |  |  |  | 4 µg/mL (≈ 3.78 µM) | 4 µg/mL (≈ 3.78 µM) | 16 µg/mL (≈ 15.1 µM) |  |  | MIC, K. pneumoniae ATCC 700603, MDR [1]: 8 µg/mL (≈ 7.56 µM); MIC, P. aeruginosa ATCC 27853 (P. aeruginosa ATCC 27853): 2 µg/mL (≈ 1.89 µM); MIC, S. aureus ATCC 25923, MSSA [3]: 32 µg/mL (≈ 30.2 µM); MIC P. aeruginosa GN_043, PmxR ([4]; Table 6, polymyxin-resistant): 2 µg/mL (≈ 1.89 µM); MIC, K. pneumoniae ATCC BAA-2146, NDM-1 pos [5]: 8 µg/mL (≈ 7.56 µM); MIC, A. baumannii ATCC 19606 (A. baumannii ATCC 19606): 16 µg/mL (≈ 15.1 µM); MIC, K. pneumoniae ATCC 13883 (K. pneumoniae ATCC 13883): 8 µg/mL (≈ 7.56 µM); MIC, E. coli ATCC 25922 (E. coli ATCC 25922): 8 µg/mL (≈ 7.56 µM)
CCCCCOc1ccc(C(=O)N[C@H](CCN)C(=O)N[C@H]2CCNC(=O)[C@H](CC(C)C)NC(=O)[C@H](CCN)NC(=O)[C@H](CCN)NC(=O)[C@H](Cc3ccccc3)NC(=O)[C@@H](CC(C)C)NC(=O)[C@H](CCN)NC2=O)cc1 [compound 6520, 4-(pentyloxy)benzoic acid-D-Dab-cyc[L-Dab-L-Dab-D-Leu-L-Phe-L-Dab-L-Dab-L-Leu]] (X4-[dDab][Dab][Dab][dL]F[Dab][Dab]L; lactam 2-C) | > 300 µM | 8 µg/mL (≈ 7.52 µM) | 4 µg/mL (≈ 3.76 µM) | 4 µg/mL (≈ 3.76 µM) | 32 µg/mL (≈ 30.1 µM) | 8 µg/mL (≈ 7.52 µM) | >32 µg/mL | 32 µg/mL (≈ 30.1 µM) | >32 µg/mL | 32 µg/mL (≈ 30.1 µM) | 32 µg/mL (≈ 30.1 µM) | 2 µg/mL (≈ 1.88 µM) | 4 µg/mL (≈ 3.76 µM) | 
